Reference: patent US9096615B2, “Bridged bicyclic amino thiazine dioxide compounds as inhibitors of beta-secretase and methods of use thereof” (AMGEN INC., priority 2013, dated 2015)

Experiments:
[1] = system: Aβ40 in conditioned medium of cells stably expressing Amyloid Precursor Protein (APP); test: In vitro BACE cell-based assay (HEK cell assay, Aβ40 sandwich ELISA); conditions: Homo sapiens, HEK293; average IC50; read-out: BACE1 cell assay IC50
Procedure, shortened: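 APP-stable cells were cultured 24 h at 37 °C, then given compound as 10-point dose-response (top 100 μM or 10 μM; 0.1% DMSO final) for 24 h. Aβ40 in conditioned medium was measured by sandwich ELISA (pAb40 capture, biotinylated 6E10 detection, Eu time-resolved fluorescence). IC50 from percent inhibition versus concentration.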

BACE1 = BACE1 (Homo sapiens, UniProt P56817); test: In vitro enzymatic BACE FRET assay; type: biochemical; conditions: average IC50; read-out: BACE1 Enzyme assay IC50
Procedure, shortened: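 BACE (0.2 nM) pre-incubated 1 h with serially diluted inhibitor in 0.05 M acetate pH 4.2, 10% DMSO, 100 uM genapol; 50 nM FRET peptide substrate added, 1 h incubation. Stopped with Tris to neutral pH; fluorescence read (ex 488, […]).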

Cathepsin D (Cat D) = molecular target: T1, Cathepsin D (Cat D) (Homo sapiens, UniProt P07339); test: In vitro enzymatic Cathepsin D (Cat D) FRET assay; type: biochemical; conditions: average IC50; first procedure; read-out: CatD IC50
T1 construct: made in house; host or cells: CHO cells
Procedure, shortened: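 Recombinant human Cat D expressed in CHO cells, 9 nM, pre-incubated 1 h with inhibitor in 0.05 M citrate pH 3.5, 10% DMSO, 5 mM CHAPS. Reaction started with 20 nM FRET peptide substrate, run 1 h, stopped with Tris to neutral pH; fluorescence read at ex 500/em 580 nm.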

human Bace2 protein = molecular target: T2, human Bace2 protein (Homo sapiens, UniProt Q9Y5Z0); test: In vitro enzymatic BACE2 FRET assay; type: biochemical; conditions: average IC50; read-out: BACE2 Enzyme assay IC50
T2 construct: V5 (C); 6-His (C)
T2 sequence (Q9Y5Z0 63-518): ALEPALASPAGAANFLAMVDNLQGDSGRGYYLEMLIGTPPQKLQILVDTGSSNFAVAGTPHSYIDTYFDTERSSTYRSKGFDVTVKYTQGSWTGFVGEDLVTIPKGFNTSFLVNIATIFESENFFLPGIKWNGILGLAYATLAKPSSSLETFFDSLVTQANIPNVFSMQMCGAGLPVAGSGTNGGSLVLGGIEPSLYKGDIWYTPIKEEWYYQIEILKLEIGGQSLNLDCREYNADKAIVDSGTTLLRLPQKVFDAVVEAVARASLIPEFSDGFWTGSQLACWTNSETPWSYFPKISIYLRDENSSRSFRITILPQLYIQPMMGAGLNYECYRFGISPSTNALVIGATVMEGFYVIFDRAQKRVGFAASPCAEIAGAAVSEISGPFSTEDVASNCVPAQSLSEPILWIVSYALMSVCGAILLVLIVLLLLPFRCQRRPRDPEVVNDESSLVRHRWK
Experimental: In Vitro Enzymatic BACE2 FRET (Fluorescence Resonance Energy Transfer) Assay
Enzyme Assay Data in the Table 3
The assay buffer used in this screen is 0.05 M acetate, pH 4.2, 10% DMSO final, 100 uM genapol (which is a nonionic detergent, below its Critical Micelle Concentration). The Beta Secretase2 enzyme (human Bace2 protein with C-terminal V5 and 6-His tag; 0.2 nM) is pre-incubated for one hour with inhibitors, typically in about 1 uL of DMSO according to a serial dilution, are added thereto. This assay is effectively started by the addition of FRET substrate (50 nM) and the combination is incubated for one hour. Final assay concentration of about 0.64 nM. The FRET assay is terminated with by addition of Tris buffer, which raises the pH to neutrality, and the fluorescence is determined. The FRET substrate is a peptide with commercially available fluorophore and quencher, on opposite sides of the BACE cleavage site. Proteolytic cleavage of the FRET substrate releases quenching of fluorescence (excitation 488 nm and […]).

Chain of BACE1 (P56817 46-501, species assumed): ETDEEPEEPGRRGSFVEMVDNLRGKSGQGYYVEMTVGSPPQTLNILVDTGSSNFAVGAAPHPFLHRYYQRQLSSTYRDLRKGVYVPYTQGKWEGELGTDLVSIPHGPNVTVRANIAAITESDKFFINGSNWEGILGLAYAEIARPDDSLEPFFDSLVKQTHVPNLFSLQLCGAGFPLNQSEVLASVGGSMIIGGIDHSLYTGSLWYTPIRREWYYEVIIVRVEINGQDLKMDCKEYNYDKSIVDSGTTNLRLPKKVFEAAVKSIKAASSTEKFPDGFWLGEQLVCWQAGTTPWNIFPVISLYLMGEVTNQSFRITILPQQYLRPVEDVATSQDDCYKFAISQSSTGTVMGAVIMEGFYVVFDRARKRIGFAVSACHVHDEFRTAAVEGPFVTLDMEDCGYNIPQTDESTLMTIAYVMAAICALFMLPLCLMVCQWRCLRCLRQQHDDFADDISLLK
T1 sequence (P07339 65-412, species assumed): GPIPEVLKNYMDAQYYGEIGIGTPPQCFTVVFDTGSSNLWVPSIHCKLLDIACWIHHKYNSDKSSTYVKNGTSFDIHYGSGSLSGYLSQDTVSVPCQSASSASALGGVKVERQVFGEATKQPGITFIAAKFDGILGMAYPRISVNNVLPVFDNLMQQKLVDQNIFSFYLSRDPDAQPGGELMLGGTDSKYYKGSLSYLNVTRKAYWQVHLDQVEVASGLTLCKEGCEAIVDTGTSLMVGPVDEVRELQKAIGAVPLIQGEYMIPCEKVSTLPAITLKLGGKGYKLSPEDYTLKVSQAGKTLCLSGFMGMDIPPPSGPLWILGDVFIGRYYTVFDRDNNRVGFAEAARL

Row | IC50 [1] [µM] | IC50 (BACE1) [µM] | IC50 (Cathepsin D (Cat D)) [µM] | IC50 (human Bace2 protein) [µM] | SMILES
1 | 0.09 | 0.002 | 755 | 0.002 | C[C@]1(c2cc(Nc3ncc(F)c4cc(Cl)cnc34)ccc2F)N=C(N)[C@@]2(CF)CC[C@@H]1S2(=O)=O [Example 54, N-(3-((1S,2R,5R)-4-amino-5-(fluoromethyl)-2-methyl-8,8-dioxido-8-thia-3-azabicyclo[3.2.1]oct-3-en-2-yl)-4-fluorophenyl)-3-chloro-5-fluoro-1,7-naphthyridin-8-amine]
2 | 0.351 | 0.018 | > 133 | 0.024 | C[C@]1(c2cc(Nc3nccc4nc(C(F)(F)F)cnc34)ccc2F)N=C(N)[C@@]2(CF)CC[C@@H]1S2(=O)=O [Example 55, N-(3-((1S,2R,5R)-4-amino-5-(fluoromethyl)-2-methyl-8,8-dioxido-8-thia-3-azabicyclo[3.2.1]oct-3-en-2-yl)-4-fluorophenyl)-2-(trifluoromethyl)pyrido[3,4-b]pyrazin-5-amine]
3 | 0.048 | 0.003 | > 400 | 0.076 | Cc1nc(OCC(F)(F)F)cnc1C(=O)Nc1ccc(F)c([C@@]2(C)N=C(N)[C@@]3(CF)CC[C@@H]2S3(=O)=O)c1 [Example 57, N-(3-((1S,2R,5R)-4-amino-5-(fluoromethyl)-2-methyl-8,8-dioxido-8-thia-3-azabicyclo[3.2.1]oct-3-en-2-yl)-4-fluorophenyl)-3-methyl-5-(2,2,2-trifluoroethoxy)-2-pyrazinecarboxamide]
4 | 0.046 | 0.001 | 342 | 0.002 | C[C@]1(c2cc(Nc3nccc4cc(Cl)cnc34)ccc2F)N=C(N)[C@@]2(CF)CC[C@@H]1S2(=O)=O [Example 58, N-(3-((1S,2R,5R)-4-amino-5-(fluoromethyl)-2-methyl-8,8-dioxido-8-thia-3-azabicyclo[3.2.1]oct-3-en-2-yl)-4-fluorophenyl)-3-chloro-1,7-naphthyridin-8-amine]
5 | 0.008 | 0.001 | 953 | 0.01 | C#CCOc1cnc(C(=O)Nc2ccc(F)c([C@@]3(C)N=C(N)[C@@]4(CF)CC[C@@H]3S4(=O)=O)c2)c(Cl)c1 [Example 60, N-(3-((1S,2R,5R)-4-amino-5-(fluoromethyl)-2-methyl-8,8-dioxido-8-thia-3-azabicyclo[3.2.1]oct-3-en-2-yl)-4-fluorophenyl)-3-chloro-5-(2-propyn-1-yloxy)-2-pyridinecarboxamide]
6 | 0.001 | 0.001 | 124 | 0.007 | CC#CCOc1cnc2c(Nc3ccc(F)c([C@@]4(C)N=C(N)[C@@]5(C)CC[C@@H]4S5(=O)=O)c3)nccc2n1 [Example 62, N-(3-((1S,2R,5R)-4-amino-2,5-dimethyl-8,8-dioxido-8-thia-3-azabicyclo[3.2.1]oct-3-en-2-yl)-4-fluorophenyl)-2-(2-butyn-1-yloxy)pyrido[3,4-b]pyrazin-5-amine]
7 | 0.002 | 0.003 | 1180 | 0.321 | CC#CCOc1cnc2c(Nc3ccc(F)c([C@@]4(C)N=C(N)[C@]5(C)CC[C@H]4S5(=O)=O)c3)nccc2n1 [Example 63, N-(3-((1R,2R,5S)-4-amino-2,5-dimethyl-8,8-dioxido-8-thia-3-azabicyclo[3.2.1]oct-3-en-2-yl)-4-fluorophenyl)-2-(2-butyn-1-yloxy)pyrido[3,4-b]pyrazin-5-amine]
8 | 0.007 | 0.014 | > 400 | 0.05 | CC#C[C@@H](C)Oc1cnc(C(=O)Nc2ccc(F)c([C@@]3(C)N=C(N)[C@@]4(C)CC[C@@H]3S4(=O)=O)c2)cn1 [Example 70, N-(3-((1S,2R,5R)-4-amino-2,5-dimethyl-8,8-dioxido-8-thia-3-azabicyclo[3.2.1]oct-3-en-2-yl)-4-fluorophenyl)-5-(((1R)-1-methyl-2-butyn-1-yl)oxy)-2-pyrazinecarboxamide]
9 | 0.0001 | 0.003 | > 400 | 0.008 | CC#C[C@H](C)Oc1cnc(C(=O)Nc2ccc(F)c([C@@]3(C)N=C(N)[C@@]4(C)CC[C@@H]3S4(=O)=O)c2)cn1 [Example 71, N-(3-((1S,2R,5R)-4-amino-2,5-dimethyl-8,8-dioxido-8-thia-3-azabicyclo[3.2.1]oct-3-en-2-yl)-4-fluorophenyl)-5-(((1S)-1-methyl-2-butyn-1-yl)oxy)-2-pyrazinecarboxamide]
10 | 0.0005 | 0.001 | 1100 | 0.082 | CC#CCOc1cnc(C(=O)Nc2ccc(F)c([C@@]3(C)N=C(N)[C@]4(C)CC[C@H]3S4(=O)=O)c2)cn1 [Example 83, N-(3-((1R,2R,5S)-4-amino-2,5-dimethyl-8,8-dioxido-8-thia-3-azabicyclo[3.2.1]oct-3-en-2-yl)-4-fluorophenyl)-5-(2-butyn-1-yloxy)-2-pyrazinecarboxamide]
11 | 0.003 | 0.002 | > 118 | 0.002 | C[C@]1(c2cc(Nc3nccc4cc(C#N)cnc34)ccc2F)N=C(N)[C@@]2(C)CC[C@@H]1S2(=O)=O [Example 84, 8-((3-((1S,2R,5R)-4-amino-2,5-dimethyl-8,8-dioxido-8-thia-3-azabicyclo[3.2.1]oct-3-en-2-yl)-4-fluorophenyl)amino)-1,7-naphthyridine-3-carbonitrile]
12 | 0.011 | 0.013 | 1450 | 0.024 | C[C@]12CC[C@H]([C@@](C)(c3cc(Nc4nccc5cc(C#N)cnc45)ccc3F)N=C1N)S2(=O)=O [Example 85, 8-((3-((1R,2R,5S)-4-amino-2,5-dimethyl-8,8-dioxido-8-thia-3-azabicyclo[3.2.1]oct-3-en-2-yl)-4-fluorophenyl)amino)-1,7-naphthyridine-3-carbonitrile]
13 | 0.053 | 0.016 | 1550 | 0.006 | Cc1cc(Cl)cnc1C(=O)Nc1ccc(F)c([C@@]2(C)N=C(N)[C@]3(CF)CC[C@H]2S3(=O)=O)c1 [Example 89, N-(3-((1R,2R,5S)-4-amino-5-(fluoromethyl)-2-methyl-8,8-dioxido-8-thia-3-azabicyclo[3.2.1]oct-3-en-2-yl)-4-fluorophenyl)-5-chloro-3-methyl-2-pyridinecarboxamide]
14 | 0.188 | 0.008 | 1310 | 0.058 | C[C@]1(c2cc(Nc3nccc4nc(OCC(F)(F)F)cnc34)ccc2F)N=C(N)[C@@]2(CF)CC[C@@H]1S2(=O)=O [Example 112, N-(3-((1S,2R,5R)-4-amino-5-(fluoromethyl)-2-methyl-8,8-dioxido-8-thia-3-azabicyclo[3.2.1]oct-3-en-2-yl)-4-fluorophenyl)-2-(2,2,2-trifluoroethoxy)pyrido[3,4-b]pyrazin-5-amine]
15 | 0.044 | 0.061 | 348 | 7 | CC#CCOc1ccc(C(=O)Nc2ccc(F)c([C@@]3(C)N=C(N)[C@]4(C)CC[C@H]3S4(=O)=O)c2)c(F)c1 [Example 129, N-(3-((1R,2R,5S)-4-amino-2,5-dimethyl-8,8-dioxido-8-thia-3-azabicyclo[3.2.1]oct-3-en-2-yl)-4-fluorophenyl)-4-(2-butyn-1-yloxy)-2-fluorobenzamide]
16 | 0.005 | 0.005 | 1280 | 0.067 | C[C@]1(c2cc(Nc3ncnc4cc(OCC5CC5)cnc34)ccc2F)N=C(N)[C@@]2(C)CC[C@@H]1S2(=O)=O [Example 139, N-(3-((1S,2R,5R)-4-amino-2,5-dimethyl-8,8-dioxido-8-thia-3-azabicyclo[3.2.1]oct-3-en-2-yl)-4-fluorophenyl)-7-(cyclopropylmethoxy)pyrido[3,2-d]pyrimidin-4-amine]
